Test results from publication doi:10.1101/2020.02.18.954917v1 (biorxiv, 2020).
pKd: −log10 of the molar value.

Assays:
[1] = biological target: T1, Them1 StarD (Them1 START domain) (Homo sapiens, UniProt Q8WXI4); assay: microscale thermophoresis, RED-tris-NTA labelled His-tagged StarD; assay type: binding
T1 sequence (Q8WXI4 339-594 isoform Q8WXI4-2): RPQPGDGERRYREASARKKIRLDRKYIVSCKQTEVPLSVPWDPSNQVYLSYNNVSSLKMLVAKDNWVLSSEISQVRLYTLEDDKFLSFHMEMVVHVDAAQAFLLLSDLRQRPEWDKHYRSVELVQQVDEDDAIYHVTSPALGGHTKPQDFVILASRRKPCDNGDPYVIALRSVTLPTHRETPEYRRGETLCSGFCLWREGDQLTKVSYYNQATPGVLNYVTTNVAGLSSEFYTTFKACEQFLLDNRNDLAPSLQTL

[2] = biological target: T1, Them1 StarD (Them1 START domain); assay: differential scanning fluorimetry, SYPRO orange; assay type: binding; conditions: 10 μM protein, 50 μM ligand, 2% ethanol

Row | pKd [1] | Tm decrease [2] | SMILES
1 | 4.15 |  | CCCCCCCCCCCCCC(=O)O [myristic acid]
2 |  | ~ 5 °C | CCCCCCCC/C=C\CCCCCCCC(=O)OC[C@@H](O)COP(=O)([O-])OCC[N+](C)(C)C [18:1 LPC]
3 | 4.34 |  | CCCCCCCCCCCCCCCC(=O)O [palmitic acid]
4 | 5.02 |  | CCCCCCCCCCCCCCCCCC(=O)O [stearic acid]
